The supplement of paper PMC10307832

Legend:
Test in all cases: relative viability (nuclei count vs DMSO), 5 days (fraction); higher = more cells survive
Tosedostat + Dasatinib = compound: CC(C)C[C@@H](C(=O)N[C@H](C(=O)OC1CCCC1)c1ccccc1)[C@H](O)C(=O)NO [Tosedostat] + Cc1nc(Nc2ncc(C(=O)Nc3c(C)cccc3Cl)s2)cc(N2CCN(CCO)CC2)n1 [Dasatinib] (partner 0.075 µM)
In short: (§1)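 One day after seeding in 1536-well plates, lung cancer cell lines were dosed by pin tool. Dosing was either single-drug or a fixed anchor-drug dose plus five library-drug doses (not always all listed) in √10 steps. After 5 days, nuclei were stained in one fix-and-stain step and counted on 4× images, and relative viability is the nuclei count of treated wells over that of vehicle wells, given as the median of duplicate plates.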

[1] = compound: CC1=NN=C(O1)C2=NN=C(C=C2)N3CCC(CC3)OC4=C(C=CC(=C4)F)Cl + CC(=O)Nc1cccc(-n2c(=O)n(C3CC3)c(=O)c3c(Nc4ccc(I)cc4F)n(C)c(=O)c(C)c32)c1 [Trametinib] (partner 0.02 µM)
In short: as §1

[2] = compound: CC1=NN=C(O1)C2=NN=C(C=C2)N3CCC(CC3)OC4=C(C=CC(=C4)F)Cl + COc1cc2c(Oc3ccc(NC(=O)C4(C(=O)Nc5ccc(F)cc5)CC4)cc3F)ccnc2cc1OCCCN1CCOCC1 [Foretinib] (partner 0.25 µM)
In short: as §1

[3] = compound: CC1=NN=C(O1)C2=NN=C(C=C2)N3CCC(CC3)OC4=C(C=CC(=C4)F)Cl + CS(=O)(=O)N1CCN(Cc2cc3nc(-c4cccc5[nH]ncc45)nc(N4CCOCC4)c3s2)CC1 [Pictilisib] (partner 1 µM)
In short: as §1

Row | Cell Line | relative viability (Tosedostat + Dasatinib; first compound 0.02 µM) | relative viability (Tosedostat + Dasatinib; first compound 0.06325 µM) | relative viability (Tosedostat + Dasatinib; first compound 0.2 µM) | relative viability (Tosedostat + Dasatinib; first compound 0.6325 µM) | relative viability (Tosedostat + Dasatinib; first compound 2 µM) | relative viability ([1]; first compound 0.253 µM) | relative viability ([1]; first compound 0.8 µM) | relative viability ([1]; first compound 2.53 µM) | relative viability ([1]; first compound 8 µM) | relative viability ([2]; first compound 0.8 µM) | relative viability ([2]; first compound 2.53 µM) | relative viability ([2]; first compound 8 µM) | relative viability ([3]; first compound 0.8 µM) | relative viability ([3]; first compound 2.53 µM) | relative viability ([3]; first compound 8 µM) | relative viability ([2]; first compound 0.253 µM) | relative viability ([3]; first compound 0.253 µM)
1 | NCI-H1650 | 0.329 | 0.362 | 0.346 | 0.448 | 0.311 | 0.352 | 0.482 | 0.481 | 0.49 | 0.928 | 0.998 | 0.852 | 0.588 | 0.554 | 0.561 | – | –
2 | NCI-H322M | 0.272 | 0.256 | 0.268 | 0.279 | 0.246 | 0.563 | 0.487 | 0.477 | 0.52 | 0.908 | 1.03 | 0.95 | 0.486 | 0.482 | 0.451 | 0.937 | 0.511
3 | HCC-366 | 0.723 | 0.594 | 0.665 | 0.556 | 0.646 | 0.16 | 0.23 | 0.268 | 0.193 | 0.574 | 0.466 | 0.343 | 0.197 | 0.15 | 0.142 | 0.46 | 0.12
4 | EMC-BAC-2 | 0.317 | 0.356 | 0.343 | 0.371 | 0.311 | 0.873 | 0.736 | 0.791 | 0.65 | 0.95 | 0.89 | 0.98 | 0.531 | 0.572 | 0.454 | 0.968 | 0.534
5 | NCI-H460 | 0.601 | 0.644 | 0.57 | 0.459 | 0.498 | 0.0953 | 0.176 | 0.175 | 0.15 | 0.299 | 0.273 | 0.243 | 0.329 | 0.232 | 0.221 | 0.282 | 0.24
6 | NCI-H358 | 0.169 | 0.183 | 0.208 | 0.211 | 0.208 | 0.131 | 0.137 | 0.146 | 0.124 | 0.393 | 0.512 | 0.41 | 0.345 | 0.387 | 0.357 | 0.512 | 0.355
7 | NCI-H1944 | 0.226 | 0.211 | 0.215 | 0.208 | 0.194 | 0.339 | 0.324 | 0.37 | 0.342 | 0.463 | 0.473 | 0.498 | 0.381 | 0.381 | 0.331 | 0.464 | 0.31
8 | EPLC-272H | 0.363 | 0.353 | 0.316 | 0.299 | 0.177 | 0.267 | 0.247 | 0.291 | 0.309 | 0.604 | 0.638 | 0.637 | – | 0.41 | 0.309 | 0.713 | 0.399
9 | NCI-H2023 | 0.585 | 0.571 | 0.552 | 0.518 | 0.505 | 0.36 | 0.419 | 0.388 | 0.301 | 0.613 | 0.64 | 0.619 | 0.27 | 0.308 | 0.18 | 0.594 | 0.22
